Consider two compounds from paper PMC2680961, “Homologous desensitization of signalling by the alpha (α) isoform of the human thromboxane A2 receptor: A specific role for nitric oxide signalling” (Biochimica et Biophysica Acta, 2007).

The structures appear in SMILES notation. Substitutions are numbered along the chain they refer to.

Test [1] deals with T1, TPα^S331,T337,S340A (Homo sapiens, UniProt P21731, S331A/S340A/T337A).
T1 construct: expressed in transfected cells
T1 sequence (P21731 1-343 S331A/T337A/S340A): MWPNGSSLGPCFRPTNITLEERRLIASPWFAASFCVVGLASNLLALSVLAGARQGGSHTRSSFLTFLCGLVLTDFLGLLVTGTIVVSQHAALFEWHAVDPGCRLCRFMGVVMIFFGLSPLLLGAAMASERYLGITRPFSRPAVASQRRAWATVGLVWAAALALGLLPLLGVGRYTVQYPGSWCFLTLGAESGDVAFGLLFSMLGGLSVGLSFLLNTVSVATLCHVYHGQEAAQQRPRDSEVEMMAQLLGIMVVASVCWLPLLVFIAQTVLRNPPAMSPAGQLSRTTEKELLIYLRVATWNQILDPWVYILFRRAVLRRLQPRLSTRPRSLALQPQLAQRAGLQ
Briefly: [3H]SQ29,548 radioligand binding, Scatchard analysis, HEK.TPα^S331,T337,S340A. The method, then:
(§1) Cells were harvested by centrifugation at 500×g at 4 °C for 5 min and washed three times with ice-cold Ca^2+/Mg^2+-free phosphate-buffered saline (PBS). TP radioligand binding assays were carried out at 30 °C for 30 min in 100 μl reactions in the presence of 0–40 nM [^3H] […] Protein determinations were carried out using the Bradford assay.
(§2) Radioligand binding and Scatchard analysis data were analysed using GraphPad Prisim V4.0 programme (GraphPad Software Inc., San Diego CA, USA). Statistical analyses were carried out using the unpaired Student's t test using the Statworks Analysis Package. p-values ≤ 0.01 indicated statistically significant differences.

For test [2], the target named is T2, TPα^S329,331A (Homo sapiens, UniProt P21731, S329A/S331A).
T2 construct: expressed in transfected cells
T2 sequence (P21731 1-343 S329A/S331A): T1 sequence (P21731 1-343 S331A/T337A/S340A) with S329A, A337T, A340S
Kind of test: [3H]SQ29,548 radioligand binding, Scatchard analysis, HEK.TPα^S329,331A. The method, then:
as §1, §2

Test [3] has as its target T3, TPβ (Homo sapiens, UniProt P21731).
T3 construct: expressed in transfected cells
Kind of test: Intracellular calcium mobilization, HEK.TPβ cells. The format is cell-based. The method, then:
(§3) Measurement of intracellular calcium mobilization ([Ca^2+]i) in FURA2/AM preloaded HEK 293 cell lines (2 × 10^6 cells/dish), each transiently co-transfected with pADVA (10 μg), and pCMV:Gαq (25 μg), was carried out as previously described. To investigate the effect of GRK2/βARK1 on TP-mediated [Ca^2+]i mobilization, HEK.TPα or HEK.TPβ cells (2 × 10^6 cells/dish) were co-transfected with pADVA (10 μg), pCMV:Gαq (25 μg) along with pRK5:βARK1^495–689 (25 μg), encoding a dominant negative form of GRK2/βARK1[39]. Approximately 48 h post-transfection, cells were harvested by scraping, washed twice in ice-cold PBS and resuspended in HBSSHB (modified Ca^2+/Mg^2+-free Hank's buffered salt solution, containing […], pH 7.67, 0.1% bovine serum albumin (BSA)) buffer at 10^7 cells/ml and incubated in the dark with 5 μM FURA2/AM for 45 min at 37 °C. Cells were collected by centrifugation (900×g, 5 min), washed once in an equal volume of HBSSHB, and were finally resuspended in HBSSHB buffer at 10^7 cells/ml and kept at room temperature in the dark for 40 min. For each measurement of [Ca^2+]i mobilization, aliquots of cells were diluted to 0.825 × 10^6 cells/ml in HBSSHB, 1 mM CaCl2 and FURA2 fluorescence was recorded (2 ml aliquots of cells) at 37^ °C with gentle stirring with a Perkin Elmer-Cetus LS50-B spectrofluorometer at excitation wavelengths of 340 nm and 380 nm and emission wavelength of 510 nm, respectively.
(§4) Cells were stimulated with the TP agonist U46619 (1 μM) and changes in [Ca^2+]i mobilization were monitored as a function of time. To assess agonist-mediated homologous desensitization, cells (0.825 × 10^6 cells/ml; 2 ml per assay) were stimulated with 1 μM U46619 (Primary stimulation) or, as a control, with the vehicle for 4 min; thereafter, cells were collected by centrifugation (900×g, 5 min); were washed twice in 2 ml HBSSHB, 1 mM CaCl2; and finally resuspended in 2 ml HBSSHB,1 mM CaCl2 and were left to recover over various time intervals (ranging from 0 to 60 min); thereafter, cells re-stimulated with 1 μM U46619 (Secondary stimulation) and changes in [Ca^2+]i mobilization were monitored as a function of time. To assess the role of protein kinase (PK) A, PKC or PKG on U46619-mediated desensitization of TPα signalling, cells were pre-incubated with the PKA inhibitor H-89 (10 μM), the PKC inhibitor GF 109203X (50 nM) or the PKG inhibitor KT 5823 (50 nM), for 15 min and respective kinase inhibitors were maintained throughout the primary/secondary U46619-stimulations and during the washes.
The vehicle had no effect on U46619-mediated [Ca^2+]i mobilization. Calibration of the signal was performed in each sample by adding 0.2% Triton X-100 to obtain the maximal fluorescence ratio (Rmax) and then 1 mM EGTA to obtain the minimal fluorescence ratio (Rmin). The ratio of the fluorescence at 340 nm to that at 380 nm is a measure of [Ca^2+]i, which assumes a Kd of 225 nM Ca^2+ for FURA2/AM. The results presented in the figures are representative data from at least three or four independent experiments and are plotted as changes in Ca^2+i mobilized (Δ[Ca^2+]i (nM)) as a function of time (s) upon ligand stimulation. Changes in [Ca^2+]i mobilization were determined by measuring peak rises in [Ca^2+]i mobilized (Δ[Ca^2+]i) and were calculated as mean changes in Δ[Ca^2+]i ± S.E.M. (nM).
On the technique in general: Calcium assays in cells follow changes in intracellular calcium, usually with a dye or a luminescent sensor.

Test [4] concerns the target T2, TPα^S329,331A. Kind of test: Intracellular calcium mobilization, HEK.TPα^S329,331A cells. Type of test: cell-based. The note with it: for Δ[Ca2+]i, U46619-induced: HEK.TPα^S329,331A. The method, then: as §3, with “Cells were collected by centrifugation (900×g, 5 min), washed once in an equal volume of HBSSHB, and were finally resuspended in HBSSHB buffer at 10^7 cells/ml and kept at room temperature in the dark for 40 min.” left out
as §4, with “To assess the role of protein kinase (PK) A, PKC or PKG on U46619-mediated desensitization of TPα signalling, cells were pre-incubated with the PKA inhibitor H-89 (10 μM), the PKC inhibitor GF 109203X (50 nM) or the PKG inhibitor KT 5823 (50 nM), for 15 min and respective kinase inhibitors were maintained throughout the primary/secondary U46619-stimulations and during the washes.” left out

T3 sequence (P21731 1-407 isoform P21731-2): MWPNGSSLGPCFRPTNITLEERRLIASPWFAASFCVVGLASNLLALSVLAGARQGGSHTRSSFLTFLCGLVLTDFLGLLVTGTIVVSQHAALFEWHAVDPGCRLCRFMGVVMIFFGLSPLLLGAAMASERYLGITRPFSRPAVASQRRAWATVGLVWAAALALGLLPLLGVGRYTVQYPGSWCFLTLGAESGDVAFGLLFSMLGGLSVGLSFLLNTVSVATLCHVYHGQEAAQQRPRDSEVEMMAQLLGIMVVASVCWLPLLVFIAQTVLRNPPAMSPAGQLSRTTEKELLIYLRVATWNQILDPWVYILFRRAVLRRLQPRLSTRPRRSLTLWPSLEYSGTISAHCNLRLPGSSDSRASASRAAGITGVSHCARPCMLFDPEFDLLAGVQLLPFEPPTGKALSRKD

On to `O=C(O)CCC/C=C\C[C@@H]1[C@H](CNNC(=O)Nc2ccccc2)[C@H]2CC[C@@H]1O2` [SQ29,548], for which the “Bmax (pmol/mg protein ± S.E.M.)” value in test [1] worked out at 4.01 ± 0.05 pmol/mg protein; in test [2], 2.9 ± 0.19 pmol/mg protein.

As to `CCCCC[C@H](O)/C=C/[C@@H]1[C@@H](C/C=C\CCCC(=O)O)[C@H]2CO[C@@H]1C2` [U46619], the “Δ[Ca2+]i, U46619-induced” value is recorded as 195 ± 11 nM in test [3] (+ GRK^DN, primary 1 μM U46619); 210 ± 12 nM in test [3] (+ GRK^DN, secondary 1 μM U46619 at 15 min); 180 ± 6.7 nM in test [3] (− GRK^DN, primary 1 μM U46619); 0 nM in test [3] (− GRK^DN, secondary 1 μM U46619 at 15 min); 176 ± 9.4 nM in test [4] (primary 1 μM U46619 4 min); 63 ± 4.4 nM in test [4] (secondary 1 μM U46619 at 15 min). The “secondary U46619 [Ca2+]i response relative to primary response” value in test [4] (printed as TPα^S239,331A, Fig. 6A and B) was 36%.
